Series [1] in a line: Clinical trial observations in patients given 200 mg tablets. Format: in vivo. As to the method:
Parmi les observations recueillies en essai clinique, avec administration de comprimés titrés à 200 mg de principe actif, le chlorhydrate de l'ortho [(diméthoxy-3,4 phénéthylamino) -3 hydroxy-2 propoxy] trans cinnamate de méthyle, on peut rapporter les trois suivantes : • Observation N°1: • Monsieur NOV...., 64 ans présente un état de mal angineux chroniaue avec huit crises par 24 heures. Le traitement consiste en un repos et la prise d'un comprimé à 200 mg du composé exemple 1 24 heures pendant 10 jours. Le résultat est un effet bradycardisant net; le pouls passe de 95 à 60 et une très nette diminution des crises dès le deuxième jour (2 à 3 par 24 heures) est notée. La tolérance est très bonne. • Obseryation N°2: • Monsieur CLI...., 75 ans présente un bloc auriculo- ventriculaire complet appareillé par pace-maker cardis à un rythme fixe (68/mn) avec parpsystolie. A l'suscultation on note un souffle systolique en écharpe. L'électrocardiogramme montre une paracystolie avec complexes spontanés à F.R. long et aspect de bloc gauche et co-plexe électro- entrainés. La radiographie montre une hypertrophie ventriculaire gauche modérée. Le traitement consiste en la prise journalière pendant 10 jours du composé exemple 1 à 200 mg.
Monsieur HEL ...., 44 ans a une hypertension artérielle depuis 3 ans; les chiffres habituels récents sont 180/110 mn Mg. L'étiologie est inconnue et il n'y a pas de complications. On associe au traitement consistant en la prise le matin d' 1 comprimé à 200 mg, pendant 15 jours, un régime hyposodé.

For the next series, the system named is récepteurs bêta-1. The series is described as follows: Inhibition of isoprenaline-induced tachycardia in the anaesthetised, bivagotomised dog. The format is in vivo, chien. Conditions: dog anaesthetised with pentobarbital, isoprénaline 0,4 µg/kg/I.V., beta-1 blockade. As for the experimental part:
[…]'action sur […] tension artérielle et du rythme cardiaque du […]é au pentobarbital et bivagotomisé recevant des injections […] (0,4 μg/kg/I.V.). L'hypotension provoquée par l'isoprénaline est due à une stimulation des récepteurs bêta-2 qui […] une vasodilatation. La […] produite par l'isopré- naline est due à une stimulation des récepteursbêta-1 cardiaques oui […] une accélération de son rythme de contraction. Dans l'inhibition […] visualisant un effet de blocage des récepteurs bêta-1, on a déterminé la dose efficace 50 en mg/kg/I.V.

Another series concerns récepteurs bêta-2. Nature of the series: Inhibition of isoprenaline-induced hypotension in the anaesthetised, bivagotomised dog. The format is in vivo, chien. Conditions: dog anaesthetised with pentobarbital, isoprénaline 0,4 µg/kg/I.V., beta-2 blockade. From the text: L'hypotension provoquée par l'isoprénaline est due à une stimulation des récepteurs bêta-2 qui entraîne une vasodilatation. La tachycardie produite par l'isopré- naline est due à une stimulation des récepteursbêta-1 cardiaques oui entraîne une accélération de son rythme de contraction.

As for `COC(=O)/C=C/c1ccccc1OCC(O)CNCCc1ccc(OC)c(OC)c1` (racemic) [Composé exemple 1, trans ortho [(3-4 diméthoxyphénéthyl)amino-3 hydroxy-2 propoxy] cinnamatede méthyle], the tolérance entry in series [1] (Observation N°1: 200 mg per 24 h for 10 days) is reported as “très bonne”; in series [1] (Observation N°2: 200 mg daily for 10 days) it was “très bonne”; in series [1] (Observation N°3: general and local tolerance, 200 mg per day for 15 days), “bonne”. Moreover, the “crises par 24 heures” value in series [1] (Observation N°1: angina attacks from the second day, one 200 mg tablet per 24 h, before treatment eight per 24 h) is listed as 2 à 3 par 24 heures. In addition, the pouls in series [1] (Observation N°1: patient, chronic angina, one 200 mg tablet per 24 h for 10 days, before treatment 95) turned out to be 60. Also, the résultat result is on record as “disparition de la para- systolie” in series [1] (Observation N°2: patient, complete AV block with pacemaker and parasystole, 200 mg daily for 10 days); “très bon” in series [1] (Observation N°3: patient, arterial hypertension, one 200 mg tablet in the morning for 15 days, with low-sodium diet). In series [1] (Observation N°3: after treatment, 200 mg per day for 15 days, before 70), the “Pouls, Après” value is on record as 60. The “Tension artérielle debout, Après” value in series [1] (Observation N°3: after treatment, 200 mg per day for 15 days, before 160/100) is recorded as 140/88. The “Tension artérielle couché, Après” value in series [1] (Observation N°3: after treatment, 200 mg per day for 15 days, before 165/102) is 140/90.

Consider `CC(=O)Nc1ccc(OCC(O)CNC(C)C)cc1` (stereo not drawn) [Fractolol, 4' - [2-hydroxy-3 - (iso-propylamino)propoxy] acétanilide], for which, in the series on récepteurs bêta-1, the “dose efficace 50 (DE 50), inhibition de la tachycardie à l'isoprénaline” value is reported as 0,61 mg/kg/I.V.

In the case of `COC(=O)/C=C/c1ccccc1OCC(O)CNC(C)C` (stereo not drawn) [LM 748, chlorhydrate de l'ortho (isopropylamino 3 - hydroxy-2 propoxy) trans cinnamate de méthyle], the “dose efficace 50 (DE 50), inhibition de l'hypotension à l'isoprénaline” value in the series with récepteurs bêta-2 was 0,01 mg/kg/I.V.
